Reference: patent US12351651B2, “Polypeptide for repairing mucosal damage or skin wound and use thereof” (Sichuan Gooddoctor Panxi Pharmaceutical Co., Ltd., priority 2020, dated 2025)
“And” between values parts separate entries of the source, which are not always exact repeats. Identical values can stand only once. Marks after values point to notes of the source that are not given here. No end group written: not given here.

What was measured:
[1] = system: ethanol-induced gastric ulcer model in mice; test: Anti-ulcer activity of single administration in ethanol-induced model in mice; type: in vivo, C57BL/6 mice; details: single administration by gavage, 0.2 mg/kg, 1 h before absolute ethanol; relative to compound of SEQ ID NO: 1
Procedure: 1. Experimental animal: SPF grade C57BL/6 mice, from Chengdu Yaokang Shengwu Keji Youxian Gongsi, animal license number: SCXK (Chuan) 2020-034.
After adaptive feeding, all the animals were fasted for 24 h with free access to water after administration one day before the experiment. Before modeling, the experimental mice were randomly divided into groups: blank group (5 mice), model group (10 mice), and treatment groups (10 mice per group). Except for the blank group and the model group, which were given sterile water by gavage, the treatment groups were administered with different test compounds by gavage at a dose of 0.2 mg/kg, respectively. One hour after administration, the mice received 0.9 ml/kg absolute ethanol by oral gavage for modeling. After 1 h, the animals were sacrificed by cervical dislocation, the gastric cardia was ligated, the pylorus was occluded, and the whole stomach was removed. 1 mL of 1% formaldehyde solution was injected into the gastric lumen, the cardia was ligated, and the stomach was taken out and immediately immersed in 1% formaldehyde solution. After 30 min, the stomach tissue was taken out and cut open along the greater curvature. The content of the stomach was rinsed off with normal saline, the injury of gastric mucosa in mice were observed and measured after being laid flat, and the ulcer index and ulcer inhibition rate were calculated.
Calculation method for ulcer index: If the length of cord-like injury was greater than 1 mm, the length thereof was measured, with 1 point per millimeter; if the width thereof was greater than 1 mm, the score thereof was doubled according to the number of millimeters of the width; and if the length was less than 1 mm, a score of 0.5 was given, and the scores were added to obtain the ulcer index of the animal. • Ulcer inhibition rate=(ulcer index of model group-ulcer index of treatment group)/ulcer index of model group*100%; and • Relative ulcer inhibition rate=(ulcer inhibition rate of test compound)/(ulcer inhibition rate of Compound 1).

[2] = Gastric and intestinal stability test of polypeptide samples; type: in vitro ADME; details: 37° C., 1 hour, HPLC peak area; for W Retained %: artificial gastric juice (W); for X Retained %: artificial intestinal juice (X); for O Retained %: hydrogen peroxide solution (O); for I Retained %: povidone-iodine solution (I)
Procedure: Method: 1 mg of each of the samples to be tested (Compounds 1, 26, 27 and 28 and EGF) were taken and dissolved in 1 ml of water. 100 ul of sample solution was taken, 900 ul of water was added, and they were uniformly mixed, as a control solution. 100 ul of each sample solution was taken, and 900 ul of artificial gastric juice (W), artificial intestinal juice (X), povidone-iodine solution (I), and hydrogen peroxide solution (O) were respectively added. The solution was placed in a constant temperature water bath at 37° C. for 1 hour, and left to stand for cooling and filtering, as a test solution. The peak areas of the sample before and after treatment were respectively detected by high performance liquid chromatography, and the experimental results were compared based on the peak areas of the samples. The original solution without any treatment after being diluted with water was used as a control, and the changes in the peak areas (contents) of test solutions at corresponding positions were compared and counted.

[3] = system: aspirin-induced gastric ulcer in rats; test: Aspirin-induced gastric ulcer in rats; type: in vivo, SD rats
Procedure: Method: After adaptive feeding, SD rats were divided into three groups (10 rats in each group) by Excel-based complete randomization, namely, a control group, a model group, and a the compound of SEQ ID NO: 1 (0.3 mg/kg) group. After the animals were grouped, they were given corresponding treatments (the control group and the model group were given the same volume of purified water, and the SEQ ID NO: 1 group was given corresponding drug treatment) once a day for 8 consecutive days. On the 7th day after administration, all the animals were fasted for 24 h with free access to water. On the 8th day, except for the control group, the rats in the SEQ ID NO: 1 group and the model group were orally given 250 mg/kg aspirin solution for modeling 30 min after compound administration (or given water). 4 h after modeling, the animals were sacrificed, the cardia was ligated, the pylorus was occluded, and the whole stomach was removed. 8 mL of 1% formaldehyde solution was injected into the gastric lumen, the pylorus was ligated, and the stomach was taken out and immediately immersed in 1% formaldehyde solution for fixation. After 30 min, the stomach was cut open along the greater curvature, the content of the stomach was cleaned off with normal saline, and after the stomach was laid flat, the stomach was observed, and panoramic photos were taken to measure the ulcer area.

[4] = system: subintestinal vascular branches of zebrafish; test: Repair of simvastatin-induced vascular injury in zebrafish; type: in vivo; details: 500 ng/fish intravenous injection, 28° C., 2 days
Text: Method: The blood vessels of transgenic vascular green fluorescent zebrafish (Fli-1) were labeled by green fluorescent protein, which was clearly visible under a fluorescence microscope (FIG. 9, the dotted frame in FIG. 9 (yellow in the original picture) was the intestinal blood vessel at the analysis site, and the arrow (white in the original picture) pointed to subintestinal vascular branches), and it became a model organism for observing vascular change. Zebrafish Fli-1 was naturally mated in pairs for breeding. Zebrafish Fli-1 was randomly selected and placed in a 6-well plate one day after fertilization, with 30 fish per well (experimental group). The zebrafish in the normal control group were treated with standard dilution water, and each of the other experimental groups was induced with aqueous simvastatin for 3 hours to establish a zebrafish microvascular loss model. After 3 hours, the aqueous solutions in all the groups were replaced with standard dilution water, and simvastatin induction was terminated. […] Ten zebrafish in each group were randomly selected and photographed under the fluorescence microscope. NIS-Elements D 3.20 advanced image processing software was used for analysis and data collection, and the number of subintestinal vascular branches was analyzed.

[5] = system: ethanol-induced gastric ulcer in mice; test: Ethanol-induced gastric ulcer in mice, administration once a day for 8 days; type: in vivo, C57BL/6 mice; details: absolute ethanol, gavage once a day for 8 days, SEQ ID NO: 1 1 mg/kg, teprenone 160 mg/kg, n = 10, x ± s
Procedure: 1. Experimental animal: SPF grade C57BL/6 mice, from Chengdu Yaokang Biotechnology Ltd, animal license number: SCXK (Chuan) 2020-034.
2. Method: After adaptive feeding, the mice were randomly divided into four groups with 10 mice in each group, namely, control group (normal group), model group (modeling with absolute ethanol), positive drug group (teprenone 160 mg/kg) and SEQ ID NO: 1 group (1 mg/kg). After the animals were grouped, the control group and model group were treated with pure water, and the other dosed groups were treated with the corresponding drugs once a day for 8 consecutive days. On the 7th day, after treatment, all the animals were fasted for 24 h with free access to water. […] The stomach was cut open along the greater curvature, the content of the stomach was cleaned off with normal saline, and the ulcer index was calculated after being laid flat. Calculation method for ulcer index: If the length of cord-like injury was greater than 1 mm, the length thereof was measured, with 1 point per millimeter; if the width thereof was greater than 1 mm, the score thereof was doubled according to the number of millimeters of the width; and if the length was less than 1 mm, a score of 0.5 was given, and the scores were added up to obtain the ulcer index of the animal.

| Substance | Anti-ulcer activity (mean relative ulcer inhibition rate) [1] | also measured |
| --- | --- | --- |
| PAAEGVGLVKQD [SEQ ID NO: 8] | + (relative ulcer inhibition rate 0.3-0.6, denoted as “+”) | – |
| AEPVPLVKQD [SEQ ID NO: 27] | +++ (relative ulcer inhibition rate 0.9-1.20, denoted as “+++”) | W Retained % [2]: 100% and 97%; X Retained % [2]: 0%; O Retained % [2]: 100% and 101%; I Retained % [2]: 100% |
| SEQ ID NO. 1 (PAAEPVPLVKQD) | – | Ulcer area ([3]; rats, 0.3 mg/kg gavage once a day for 8 days, aspirin 250 mg/kg): 20.55 ± 10.45** mm^2 |
| PAAQPVPLVKQD [SEQ ID NO: 10] | ++++ (Relative ulcer inhibition rate >1.20, denoted as “++++”) | – |
| Val-Pro-Leu-Val (VPLV) [SEQ ID NO: 73] | ++ (relative ulcer inhibition rate 0.6-0.9, denoted as “++”) | – |
| PAAEPVPLVKQD [SEQ ID NO: 1, Pro-Ala-Ala-Glu-Pro-Val-Pro-Leu-Val-Lys-Gln-Asp] | – | weight change ([3]; 0.3 mg/kg oral gavage once a day for 8 consecutive days): no obvious effects |
| PIAEPVPLVKQD [SEQ ID NO: 56] | − (relative ulcer inhibition rate <0, denoted as “−”) | – |
| PAAEPVPFVKQD [SEQ ID NO: 12] | / (0< relative ulcer inhibition rate <0.3, denoted as “/” (very low activity)) | – |
| PAAEPVPLVKQE [SEQ ID NO: 60] | + (relative ulcer inhibition rate 0.3-0.6, denoted as “+”) | – |
| Ala-Glu-Pro-Val-Pro (AEPVP) [SEQ ID NO: 44] | + (relative ulcer inhibition rate 0.3-0.6, denoted as “+”) | – |
| PAAEPVPLVKND [SEQ ID NO: 58] | / (0< relative ulcer inhibition rate <0.3, denoted as “/” (very low activity)) | – |
| Pro-Ala-Ala-Glu-Pro (PAAEP) [SEQ ID NO: 35] | + (relative ulcer inhibition rate 0.3-0.6, denoted as “+”) | – |
| PVPLVKQD [SEQ ID NO: 28] | +++ (relative ulcer inhibition rate 0.9-1.20, denoted as “+++”) | W Retained % [2]: 100% and 96%; X Retained % [2]: 0%; O Retained % [2]: 100% and 99%; I Retained % [2]: 100% and 99% |
| PAAEPVPLVKQN [SEQ ID NO: 50] | / (0< relative ulcer inhibition rate <0.3, denoted as “/” (very low activity)) | – |
| EPVPLVKQD [SEQ ID NO: 38] | +++ (relative ulcer inhibition rate 0.9-1.20, denoted as “+++”) | – |
| Glu-Pro-Val-Pro-Leu (EPVPL) [SEQ ID NO: 31] | +++ (relative ulcer inhibition rate 0.9-1.20, denoted as “+++”) | – |
| PAAEPV [SEQ ID NO: 34] | / (0< relative ulcer inhibition rate <0.3, denoted as “/” (very low activity)) | – |
| PAAEPVPLIKQD [SEQ ID NO: 64] | + (relative ulcer inhibition rate 0.3-0.6, denoted as “+”) | – |
| PAGEPVPLVKQD [SEQ ID NO: 48] | ++ (relative ulcer inhibition rate 0.6-0.9, denoted as “++”) | – |
| AEPVPL [SEQ ID NO: 30] | +++ (relative ulcer inhibition rate 0.9-1.20, denoted as “+++”) | – |
| PAAEPVPL [SEQ ID NO: 26] | +++ (relative ulcer inhibition rate 0.9-1.20, denoted as “+++”) | subintestinal microvascular loss caused by simvastatin / number of subintestinal vascular branches [4]: significantly reverse; W Retained % [2]: 100%; O Retained % [2]: 100% and 102%; I Retained % [2]: 100% and 101% |
| Ala-Glu-Pro-Val (AEPV) [SEQ ID NO: 45] | − (relative ulcer inhibition rate <0, denoted as “−”) | – |
| PAAEPVPLVKED [SEQ ID NO: 57] | ++ (relative ulcer inhibition rate 0.6-0.9, denoted as “++”) | – |
| PAADPVPLVKQD [SEQ ID NO: 11] | ++ (relative ulcer inhibition rate 0.6-0.9, denoted as “++”) | – |
| PAAVPVPLVKQD [SEQ ID NO: 67] | + (relative ulcer inhibition rate 0.3-0.6, denoted as “+”) | – |
| Pro-Val-Pro-Leu (PVPL) [SEQ ID NO: 32] | +++ (relative ulcer inhibition rate 0.9-1.20, denoted as “+++”) | – |
| PAAEPVPLVK [SEQ ID NO: 3] | +++ (relative ulcer inhibition rate 0.9-1.20, denoted as “+++”) | – |
| teprenone | – | Ulcer index [5]: 13.42 ± 7.61 |
